Data as given in patent US7186751B2, “Injectable composition of paclitaxel” (priority 2001, dated 2007).

What was measured:
rat [1] = conditions: cited from earlier work
rat [2] = conditions: ratio of LD50 in rat
Text: The common stabilizer has danger in the safety in case of excessive use.

SMILES: CC(=O)N[C@@H](CS)C(=O)O [N-acetyl cysteine]
- LD50 (rat [1]): 3600 mg/kg
- Lower toxicity than citric acid (rat [2]): 90 times
